In patent US4172896A, “Methane-sulfonamide derivatives, the preparation thereof and composition comprising the same” (Dainippon Pharmaceutical Co., Ltd., priority 1978, dated 1979):

Assays:
[1] = Anti-maximal electroshock seizure activity in mice; format: in vivo, mice (male, STD-ddY strain); details: Mus musculus, oral, MES 60 Hz 25 mA 0.2 s, at peak effect time
Description: Male mice of STD-ddY strain were used. The test compounds were orally administered to the test animals (each group: 10 mice) in the form of a homogeneous suspension in a 0.5% tragacanth solution.
Maximal electroshock seizures (MES) were induced by the method of Swinyard [cf. J. Amer. Pharm. Assoc., Vol. 38, page 201 (1949)]. The animals were subjected to 60 Hz current of 25 mA for 0.2 second delivered through corneal electrodes after administration of the test compounds. […] J. Pharmacol. Exp. Ther., Vol. 96, page 99 (1947)].

in vivo = details: mouse; for LD50 at 168 h: mortality observed for 7 days; for selectivity ratio: read-out: Safety index
Description: Male mice of STD-ddY strain weighing 20-22 g were used. The test compounds were orally administered to the test animals (each group: 10 mice) in the form of a homogeneous suspension in 0.5% tragacanth solution.

[2] = Effect on coordinated motor movements in mice (rotarod); details: for TD50 / selectivity ratio: mouse, in vivo, po; for NTD50 (median neurotoxic dose): oral, mice, rotarod, at peak effect time
Protocol: Mice trained to continue coordinated motor movements for 100 seconds or more on a rotarod apparatus (2.5 cm in diameter at 11 RPM) were used [J. Amer. Pharm. […] Impairment of coordinated motor movements was defined as the inability of the animals to retain on the rotarod for a 100 second test period. After oral administration of the test compounds rotarod performance was tested at intervals of 1 hour for 6 hours. Median neurotoxic dose (NTD50), i.e. the does which causes fall from rotarod in 50% of animals, was calculated by the method of Litchfield and Wilcoxon.

NS(=O)(=O)Cc1noc2cc(F)ccc12 [compound 18]
ED50 [1]: 18.9 mg/kg

NS(=O)(=O)Cc1noc2ccc(Cl)cc12 [compound 6]
ED50 [1]: 14.2 mg/kg

NC(=O)N1c2ccccc2C=Cc2ccccc21 [Carbamazepine, 5H-dibenz[b,f]azepine-5-carboxamide, reference compound]
LD50 at 168 h (in vivo; oral, mice): 1700 mg/kg
selectivity ratio (in vivo; po): 129
ED50 [1]: 13.2 mg/kg
TD50 [2]: 141 mg/kg
selectivity ratio [2]: 10.7

CN(C)S(=O)(=O)Cc1noc2ccccc12 [compound 5]
ED50 [1]: 37.2 mg/kg

NS(=O)(=O)Cc1noc2ccccc12 [compound 1]
LD50 at 168 h (in vivo; oral, mice): 1830 mg/kg
selectivity ratio (in vivo; po): 93.3
ED50 [1]: 19.6 mg/kg
selectivity ratio [2]: 14.9
NTD50 (median neurotoxic dose) [2]: 292 mg/kg, p.o

CCC1(c2ccccc2)C(=O)NCNC1=O [Primidone, 5-ethyl-5-phenylhexahydropyrimidine-4,6-dione, reference compound]
ED50 [1]: 21.7 mg/kg

O=C1NC(=O)C(c2ccccc2)(c2ccccc2)N1 [Diphenylhydantoin, 5,5-diphenyl-2,4-imidazolidinedione, reference compound]
ED50 [1]: 7.6 mg/kg
TD50 [2]: 72 mg/kg

NS(=O)(=O)Cc1noc2ccc(Br)cc12 [compound 14]
ED50 [1]: 13.5 mg/kg

CNS(=O)(=O)Cc1noc2ccc(Cl)cc12 [Test compound 7]
ED50 [1]: ~20 mg/kg

NC(=O)NC(=O)Cc1ccccc1 [Phenacemide, phenylacetylurea, reference compound]
ED50 [1]: 61.2 mg/kg

CN(C)S(=O)(=O)Cc1nc2ccccc2o1 [compound 21]
ED50 [1]: 34 mg/kg

CNS(=O)(=O)Cc1noc2ccc(F)cc12 [compound 11]
ED50 [1]: 34.5 mg/kg

CNS(=O)(=O)Cc1noc2ccc(Br)cc12 [compound 15]
ED50 [1]: 15 mg/kg

CCNS(=O)(=O)Cc1noc2ccc(Cl)cc12 [compound 8]
ED50 [1]: 21.3 mg/kg

CCCNS(=O)(=O)Cc1nc2ccccc2o1 [compound 22]
ED50 [1]: 31.2 mg/kg

NS(=O)(=O)Cc1nc2cc(Cl)ccc2o1 [compound 23]
ED50 [1]: 30.3 mg/kg

CC(C)NS(=O)(=O)Cc1noc2ccccc12 [Test compound 4]
ED50 [1]: 56 mg/kg

NS(=O)(=O)Cc1nc2ccccc2o1 [compound 19]
LD50 at 168 h (in vivo; oral, mice): ~1800 mg/kg
ED50 [1]: 12 mg/kg
TD50 [2]: 168 mg/kg
selectivity ratio [2]: 14

CCNS(=O)(=O)Cc1noc2ccccc12 [Test compound 3]
ED50 [1]: 38.9 mg/kg

CC(C)NS(=O)(=O)Cc1noc2ccc(Br)cc12 [compound 17]
ED50 [1]: 22.3 mg/kg

CNS(=O)(=O)Cc1noc2ccccc12 [compound 2]
ED50 [1]: 22.3 mg/kg

CN(C)S(=O)(=O)Cc1noc2ccc(F)cc12 [compound 13]
ED50 [1]: 32 mg/kg

NS(=O)(=O)Cc1noc2ccc(F)cc12 [Test compound 10, 5-Fluoro-3-sulfamoylmethyl-1,2-benzisoxazole]
selectivity ratio (in vivo; LD50/ED50 of anti-MES, mice, oral): 86.7
LD50 at 168 h (in vivo; oral, mice): 1260 mg/kg
selectivity ratio [2]: 10.6
NTD50 (median neurotoxic dose) [2]: 154 mg/kg, p.o

CNS(=O)(=O)Cc1nc2ccccc2o1 [compound 20]
ED50 [1]: 17.2 mg/kg

CCNS(=O)(=O)Cc1noc2ccc(Br)cc12 [compound 16]
ED50 [1]: 18.3 mg/kg

CN(C)S(=O)(=O)Cc1noc2ccc(Cl)cc12 [compound 9]
ED50 [1]: 56.2 mg/kg

CCNS(=O)(=O)Cc1noc2ccc(F)cc12 [compound 12]
ED50 [1]: 31.6 mg/kg
